Test results from ChEMBL document CHEMBL2375317, “Heterocyclic bismuth carboxylates based on a diphenyl sulfone scaffold: synthesis and antifungal activity against Saccharomyces cerevisiae” (Eur J Med Chem, 2013).

System: Saccharomyces cerevisiae
Assay: Antifungal activity against Saccharomyces cerevisiae W303-1A at 30 mM after 48 hrs
Type: functional, organism-based

Substance	inhibition zone (IZ)
2,8-Dihydroxy-10-chlorophenothiabismine 5,5-dioxide	8 mm
10-(1,3-Dibromoazulene-2-carboxy)phenothiabismine 5,5-dioxide	12 mm
10-(1,3-Dichloroazulene-2-carboxy)phenothiabismine 5,5-dioxide	13 mm
10-(1-Naphthoyloxy)phenothiabismine 5,5-dioxide	13 mm
10-(2-Acetoxybenzoyloxy)phenothiabismine 5,5-dioxide	12 mm
10-(2-Naphthoyloxy)phenothiabismine 5,5-dioxide	12 mm
10-(4-Acetoxybenzoyloxy)phenothiabismine 5,5-dioxide	17 mm
10-(4-Aminobenzoyloxy)phenothiabismine 5,5-dioxide	15 mm
10-(4-Nitrobenzoyloxy)phenothiabismine 5,5-dioxide	17 mm
10-(9-Anthranoyloxy)phenothiabismine 5,5-dioxide	14 mm
10-(Azulene-1-carboxy)phenothiabismine 5,5-dioxide	11 mm
10-(Azulene-2-carboxy)phenothiabismine 5,5-dioxide	14 mm
10-(Azulene-6-carboxy)phenothiabismine 5,5-dioxide	12 mm
10-(Benzoyloxy)phenothiabismine 5,5-dioxide	17 mm
10-(Cinnamoyloxy)phenothiabismine 5,5-dioxide	14 mm
10-(Indol-3-acetoxy)phenothiabismine 5,5-dioxide	13 mm
10-(N-Phthalylglycyloxy)phenothiabismine 5,5-dioxide	12 mm
10-(Nicotinoyloxy)phenothiabismine 5,5-dioxide	14 mm
10-(p-tolyl)benzo[b][1,4]benzothiabismine 5,5-dioxide	0 mm
10-Chloro-2-phenylphenothiabismine 5,5-dioxide	0 mm
10-Chloro-2-tert-butylphenothiabismine 5,5-dioxide	0 mm
10-chlorobenzo[b][1,4]benzothiabismine 5,5-dioxide	18 mm
tert-butyl-[2-[tert-butyl(dimethyl)silyl]oxy-10-chloro-5,5-dioxo-benzo[b][1,4]benzothiabismin-8-yl]oxy-dimethyl-silane	0 mm
